Where a SMILES comes first, the peptide text is derived from it. [ ]: non-standard residue; d: D form. The star is where a group is joined. NHCH2CH2OH = OCCN*; For = O=C*
Columns and labels:
[1] = H+/Na+ transport assay of bead-derived peptides (one-point); assay type: biochemical; parameters: key: relative activity; mean of two control wells = 1.00; conditions: bead-derived peptide solution, EYPC/EYPG LUVs;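 also: relative to parent gramicidin A activity set to 1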
Method in brief: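 Miniaturized 96-well format. LUVs with entrapped pyranine (1.0 mM) were exposed to peptide for 30 min at RT. Intensities were expressed relative to full lysis by Triton X-100 and no treatment, with control-well mean = 1.00.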

[2] = cell viability/%
Method in brief: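 Peptide stocks diluted 250× in growth medium; P388 cells 1 × 10^4 cells/mL final; 37 °C, 5% CO2, 92 h. WST-1 + 1-methoxy PMS, 4 h, A415. Output: % viability.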

[3] = tested on: Streptococcus pyogenes SSI-9; assay: Antibacterial activity assay of bead-derived peptides (three concentrations); assay type: cell-based; parameters: key: +++: inhibition by the 640-fold diluted peptide solution; ++: inhibition by the 160-fold diluted solution; +: inhibition by the 40-fold diluted solution; -: no inhibition; conditions: S. pyogenes, bead-derived peptide solution, three concentrations
Method in brief: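 Growth inhibition scored visually as precipitated bacteria after 37 °C, 18 h incubation. Streptococcus pyogenes SSI-9 inoculum of 2 × 10^5 CFU in Ca2+/Mg2+-adjusted Mueller Hinton broth plus 5% laked horse blood; peptides tested at three levels: stock, 4-fold and 16-fold DMSO dilutions.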

| SMILES | H+/Na+ transport activity normalized against the value of 1 (1.00) [1] | viability [2] | antibacterial activity [3] |
| --- | --- | --- | --- |
| CNC(=O)C[C@@H](NC(=O)[C@@H](NC(=O)[C@@H](CC(C)C)NC(=O)[C@H](C)NC(=O)[C@H](NC(=O)[C@H](C)NC(=O)CNC(=O)[C@@H](NC=O)C(C)C)C(C)C)C(C)C)C(=O)N[C@@H](Cc1c[nH]c2ccccc12)C(=O)N[C@@H](C(=O)N[C@@H](Cc1c[nH]c2ccccc12)C(=O)N[C@H](CC(C)C)C(=O)N[C@@H](Cc1c[nH]c2ccccc12)C(=O)N[C@H](CC(C)C)C(=O)N[C@@H](Cc1c[nH]c2ccccc12)C(=O)NCCO)C(C)C [compound 603] (For-VGA[dV]A[dL]V[dD](NHMe)W[dV]W[dL]W[dL]W-NHCH2CH2OH) | 1.10 | 100% | - |
| CNC(=O)C[C@@H](NC(=O)[C@H](Cc1c[nH]c2ccccc12)NC(=O)[C@H](NC(=O)[C@@H](NC(=O)[C@@H](CC(C)C)NC(=O)[C@H](C)NC(=O)[C@@H](CC(C)C)NC(=O)[C@H](C)NC(=O)CNC(=O)[C@@H](NC=O)C(C)C)C(C)C)C(C)C)C(=O)N[C@@H](Cc1c[nH]c2ccccc12)C(=O)N[C@@H](C(=O)N[C@@H](Cc1c[nH]c2ccccc12)C(=O)N[C@@H](C(=O)N[C@@H](Cc1c[nH]c2ccccc12)C(=O)NCCO)C(C)C)C(C)C [compound 5255] (For-VGA[dL]A[dL]V[dV]W[dD](NHMe)W[dV]W[dV]W-NHCH2CH2OH) | 1.25 | 100% | - |
| CC(C)C[C@@H](NC(=O)[C@H](Cc1c[nH]c2ccccc12)NC(=O)[C@@H](CC(C)C)NC(=O)[C@@H](NC(=O)[C@H](NC(=O)[C@H](C)NC(=O)[C@H](NC(=O)[C@H](C)NC(=O)CNC(=O)[C@@H](NC=O)C(C)C)C(C)C)C(C)C)C(C)C)C(=O)N[C@@H](Cc1c[nH]c2ccccc12)C(=O)N[C@@H](C(=O)N[C@@H](Cc1c[nH]c2ccccc12)C(=O)N[C@@H](C(=O)N[C@@H](Cc1c[nH]c2ccccc12)C(=O)NCCO)C(C)C)C(C)C [compound 100] (For-VGA[dV]A[dV]V[dL]W[dL]W[dV]W[dV]W-NHCH2CH2OH) | 1.18 | 9.5% | ++ |
| CNC(=O)C[C@@H](NC(=O)[C@H](Cc1c[nH]c2ccccc12)NC(=O)[C@@H](CC(C)C)NC(=O)[C@H](Cc1c[nH]c2ccccc12)NC(=O)[C@H](NC(=O)[C@H](Cc1c[nH]c2ccccc12)NC(=O)[C@@H](CC(C)C)NC(=O)[C@@H](NC(=O)[C@@H](CC(C)C)NC(=O)[C@H](C)NC(=O)[C@@H](CC(C)C)NC(=O)[C@H](C)NC(=O)CNC(=O)[C@@H](NC=O)C(C)C)C(C)C)C(C)C)C(=O)N[C@@H](Cc1c[nH]c2ccccc12)C(=O)NCCO [compound 3854] (For-VGA[dL]A[dL]V[dL]W[dV]W[dL]W[dD](NHMe)W-NHCH2CH2OH) | 1.18 | 100% | - |
| CNC(=O)C[C@@H](NC(=O)[C@@H](NC(=O)[C@@H](CC(C)C)NC(=O)[C@H](C)NC(=O)[C@H](NC(=O)[C@H](C)NC(=O)CNC(=O)[C@@H](NC=O)C(C)C)C(C)C)C(C)C)C(=O)N[C@@H](Cc1c[nH]c2ccccc12)C(=O)N[C@H](CC(C)C)C(=O)N[C@@H](Cc1c[nH]c2ccccc12)C(=O)N[C@@H](C(=O)N[C@@H](Cc1c[nH]c2ccccc12)C(=O)N[C@H](CC(C)C)C(=O)N[C@@H](Cc1c[nH]c2ccccc12)C(=O)NCCO)C(C)C [compound 6541] (For-VGA[dV]A[dL]V[dD](NHMe)W[dL]W[dV]W[dL]W-NHCH2CH2OH) | 1.14 | 100% | - |
| CC(C)C[C@@H](NC(=O)[C@H](Cc1c[nH]c2ccccc12)NC(=O)[C@H](NC(=O)[C@H](Cc1c[nH]c2ccccc12)NC(=O)[C@@H](CC(C)C)NC(=O)[C@H](Cc1c[nH]c2ccccc12)NC(=O)[C@@H](CC(C)C)NC(=O)[C@@H](NC(=O)[C@H](NC(=O)[C@H](C)NC(=O)[C@H](NC(=O)[C@H](C)NC(=O)CNC(=O)[C@@H](NC=O)C(C)C)C(C)C)C(C)C)C(C)C)C(C)C)C(=O)N[C@@H](Cc1c[nH]c2ccccc12)C(=O)NCCO [compound 12432] (For-VGA[dV]A[dV]V[dL]W[dL]W[dV]W[dL]W-NHCH2CH2OH) | 1.01 | 6.4% | - |
| CC(C)C[C@@H](NC(=O)[C@H](C)NC(=O)[C@H](NC(=O)[C@H](C)NC(=O)CNC(=O)[C@@H](NC=O)C(C)C)C(C)C)C(=O)N[C@H](C(=O)N[C@H](CC(C)C)C(=O)N[C@@H](Cc1c[nH]c2ccccc12)C(=O)N[C@H](CC(C)C)C(=O)N[C@@H](Cc1c[nH]c2ccccc12)C(=O)N[C@@H](C(=O)N[C@@H](Cc1c[nH]c2ccccc12)C(=O)N[C@@H](C(=O)N[C@@H](Cc1c[nH]c2ccccc12)C(=O)NCCO)C(C)C)[C@H](C)O)C(C)C [compound 2117] (For-VGA[dV]A[dL]V[dL]W[dL]W[dT]W[dV]W-NHCH2CH2OH) | 1.15 | 100% | + |
| CC(C)C[C@@H](NC(=O)[C@H](Cc1c[nH]c2ccccc12)NC(=O)[C@H](NC(=O)[C@@H](NC(=O)[C@H](NC(=O)[C@H](C)NC(=O)[C@H](NC(=O)[C@H](C)NC(=O)CNC(=O)[C@@H](NC=O)C(C)C)C(C)C)C(C)C)C(C)C)[C@H](C)O)C(=O)N[C@@H](Cc1c[nH]c2ccccc12)C(=O)N[C@H](CC(C)C)C(=O)N[C@@H](Cc1c[nH]c2ccccc12)C(=O)N[C@@H](C(=O)N[C@@H](Cc1c[nH]c2ccccc12)C(=O)NCCO)C(C)C [compound 1523] (For-VGA[dV]A[dV]V[dT]W[dL]W[dL]W[dV]W-NHCH2CH2OH) | 1.04 | 100% | + |
| CC(C)C[C@@H](NC(=O)[C@H](C)NC(=O)[C@H](NC(=O)[C@H](C)NC(=O)CNC(=O)[C@@H](NC=O)C(C)C)C(C)C)C(=O)N[C@H](C(=O)N[C@H](CC(C)C)C(=O)N[C@@H](Cc1c[nH]c2ccccc12)C(=O)N[C@@H](C(=O)N[C@@H](Cc1c[nH]c2ccccc12)C(=O)N[C@@H](C(=O)N[C@@H](Cc1c[nH]c2ccccc12)C(=O)N[C@H](CC(C)C)C(=O)N[C@@H](Cc1c[nH]c2ccccc12)C(=O)NCCO)[C@H](C)O)C(C)C)C(C)C [compound 3205] (For-VGA[dV]A[dL]V[dL]W[dV]W[dT]W[dL]W-NHCH2CH2OH) | 1.16 | 90.2% | - |
| CNC(=O)C[C@@H](NC(=O)[C@H](Cc1c[nH]c2ccccc12)NC(=O)[C@H](NC(=O)[C@H](Cc1c[nH]c2ccccc12)NC(=O)[C@@H](CC(C)C)NC(=O)[C@H](Cc1c[nH]c2ccccc12)NC(=O)[C@@H](CC(C)C)NC(=O)[C@@H](NC(=O)[C@@H](CC(C)C)NC(=O)[C@H](C)NC(=O)[C@H](NC(=O)[C@H](C)NC(=O)CNC(=O)[C@@H](NC=O)C(C)C)C(C)C)C(C)C)C(C)C)C(=O)N[C@@H](Cc1c[nH]c2ccccc12)C(=O)NCCO [compound 7334] (For-VGA[dV]A[dL]V[dL]W[dL]W[dV]W[dD](NHMe)W-NHCH2CH2OH) | 1.11 | 94.6% | - |
| CC(C)C[C@@H](NC(=O)[C@H](C)NC(=O)CNC(=O)[C@@H](NC=O)C(C)C)C(=O)N[C@@H](C)C(=O)N[C@@H](C(=O)N[C@H](C(=O)N[C@@H](C(=O)N[C@@H](Cc1c[nH]c2ccccc12)C(=O)N[C@@H](C(=O)N[C@@H](Cc1c[nH]c2ccccc12)C(=O)N[C@H](CC(C)C)C(=O)N[C@@H](Cc1c[nH]c2ccccc12)C(=O)N[C@@H](C(=O)N[C@@H](Cc1c[nH]c2ccccc12)C(=O)NCCO)C(C)C)[C@H](C)O)[C@H](C)O)C(C)C)C(C)C [compound 5747] (For-VGA[dL]A[dV]V[dT]W[dT]W[dL]W[dV]W-NHCH2CH2OH) | 1.09 | 100% | - |
| CC(C)C[C@@H](NC(=O)[C@H](C)NC(=O)CNC(=O)[C@@H](NC=O)C(C)C)C(=O)N[C@@H](C)C(=O)N[C@@H](C(=O)N[C@H](C(=O)N[C@H](CC(C)C)C(=O)N[C@@H](Cc1c[nH]c2ccccc12)C(=O)N[C@@H](C(=O)N[C@@H](Cc1c[nH]c2ccccc12)C(=O)N[C@@H](C(=O)N[C@@H](Cc1c[nH]c2ccccc12)C(=O)N[C@H](CC(C)C)C(=O)N[C@@H](Cc1c[nH]c2ccccc12)C(=O)NCCO)C(C)C)C(C)C)C(C)C)C(C)C [compound 8051] (For-VGA[dL]A[dV]V[dL]W[dV]W[dV]W[dL]W-NHCH2CH2OH) | 1.13 | 16.8% | + |
| CC(C)C[C@@H](NC(=O)[C@H](C)NC(=O)[C@H](NC(=O)[C@H](C)NC(=O)CNC(=O)[C@@H](NC=O)C(C)C)C(C)C)C(=O)N[C@H](C(=O)N[C@@H](C(=O)N[C@@H](Cc1c[nH]c2ccccc12)C(=O)N[C@H](CC(C)C)C(=O)N[C@@H](Cc1c[nH]c2ccccc12)C(=O)N[C@H](CC(C)C)C(=O)N[C@@H](Cc1c[nH]c2ccccc12)C(=O)N[C@H](CC(C)C)C(=O)N[C@@H](Cc1c[nH]c2ccccc12)C(=O)NCCO)[C@H](C)O)C(C)C [compound 3956] (For-VGA[dV]A[dL]V[dT]W[dL]W[dL]W[dL]W-NHCH2CH2OH) | 1.12 | 100% | + |
